# Test results reported in PubChem BioAssay AID290 (DTP/NCI, 2004).
# Values joined by “and” are separate entries in the source; they are usually repeats but may differ in a detail not shown here. Equal entries are not always repeated. Results filed as inconclusive are left out.
# Tested on: mice, P1798 lymphosarcoma sc, survival or tumor weight T/C
# Assay: NCI In Vivo Anticancer Drug Screen. Data for tumor model P1798 Lymphosarcoma (subcutaneous) in unknown mice
# Protocol: The antitumor activity of compounds was measured in mice bearing transplantable tumors. Survival or tumor size were measured and the results are expressed as the measurement made in the treated group (T) divided by the measurement made in the vehicle treated control group (C). The tumor model used in this assay is P1798 Lymphosarcoma (subcutaneous) in unknown mice
# [1] = endpoint: mean tumor weight, dose: 62.5 mg/kg/injection, schedule: Q01DX010 (ip), vehicle: carboxymethylcellulose (CMC), higher = larger tumour
# [2] = endpoint: mean tumor weight, dose: 125.0 mg/kg/injection, schedule: Q01DX010 (ip), vehicle: carboxymethylcellulose (CMC), higher = larger tumour
# [3] = endpoint: mean tumor weight, dose: 250.0 mg/kg/injection, schedule: Q01DX010 (ip), vehicle: carboxymethylcellulose (CMC), higher = larger tumour
# [4] = endpoint: mean tumor weight, dose: 6.0 mg/kg/injection, schedule: Q01DX010 (ip), vehicle: saline, higher = larger tumour
structure (smiles),measurement,setting,value
CN(Cc1cnc2nc(N)nc(N)c2n1)c1ccc(C(=O)N[C@@H](CCC(=O)O)C(=O)O)cc1,T/C,"endpoint: mean tumor weight, dose: 0.15 mg/kg/injection, schedule: Q01DX010 (ip), vehicle: other, higher = larger tumour",79 % of control and 101 % of control
same,T/C,"endpoint: mean tumor weight, dose: 0.16 mg/kg/injection, schedule: Q01DX010 (ip), vehicle: other, higher = larger tumour",118 % of control
same,T/C,"endpoint: mean tumor weight, dose: 0.39 mg/kg/injection, schedule: Q01DX010 (sc), vehicle: other, higher = larger tumour",28 % of control
same,T/C,"endpoint: mean tumor weight, dose: 0.5 mg/kg/injection, schedule: Q01DX011 (ip), vehicle: carboxymethylcellulose (CMC), higher = larger tumour",33 % of control
same,T/C,"endpoint: mean tumor weight, dose: 0.65 mg/kg/injection, schedule: Q01DX010 (sc), vehicle: other, higher = larger tumour",50 % of control
same,T/C,"endpoint: mean tumor weight, dose: 1.0 mg/kg/injection, schedule: Q01DX011 (ip), vehicle: carboxymethylcellulose (CMC), higher = larger tumour",1 % of control
same,T/C,"endpoint: mean tumor weight, dose: 1.08 mg/kg/injection, schedule: Q01DX010 (sc), vehicle: other, higher = larger tumour",18 % of control
same,T/C,"endpoint: mean tumor weight, dose: 11.0 mg/kg/injection, schedule: Q01DX001 (ip), vehicle: carboxymethylcellulose (CMC), higher = larger tumour",78 % of control
same,T/C,"endpoint: mean tumor weight, dose: 22.0 mg/kg/injection, schedule: Q01DX001 (ip), vehicle: carboxymethylcellulose (CMC), higher = larger tumour",74 % of control
same,T/C,"endpoint: mean tumor weight, dose: 43.0 mg/kg/injection, schedule: Q01DX001 (ip), vehicle: carboxymethylcellulose (CMC), higher = larger tumour",44 % of control
same,T/C,"endpoint: median survival time, dose: 0.31 mg/kg/injection, schedule: Q01DX010 (ip), vehicle: sodium bicarbonate, higher = longer survival",101 % of control
same,T/C,"endpoint: median survival time, dose: 0.62 mg/kg/injection, schedule: Q01DX010 (ip), vehicle: sodium bicarbonate, higher = longer survival",103 % of control
same,T/C,"endpoint: median survival time, dose: 0.63 mg/kg/injection, schedule: Q01DX010 (ip), vehicle: sodium bicarbonate, higher = longer survival",103 % of control
same,T/C,"endpoint: median survival time, dose: 1.25 mg/kg/injection, schedule: Q01DX010 (ip), vehicle: sodium bicarbonate, higher = longer survival",113 % of control
same,T/C,"endpoint: median survival time, dose: 2.5 mg/kg/injection, schedule: Q01DX010 (ip), vehicle: sodium bicarbonate, higher = longer survival",33 % of control
same,T/C,"endpoint: median survival time, dose: 4.0 mg/kg/injection, schedule: Q04DX007 (ip), vehicle: sodium bicarbonate, higher = longer survival",76 % of control
same,T/C,"endpoint: median survival time, dose: 5.0 mg/kg/injection, schedule: Q01DX010 (ip), vehicle: sodium bicarbonate, higher = longer survival",37 % of control
same,T/C,"endpoint: median survival time, dose: 8.0 mg/kg/injection, schedule: Q04DX007 (ip), vehicle: sodium bicarbonate, higher = longer survival",76 % of control
same,T/C,"endpoint: median survival time, dose: 16.0 mg/kg/injection, schedule: Q04DX007 (ip), vehicle: saline, higher = longer survival",161 % of control
same,T/C,"endpoint: median survival time, dose: 16.0 mg/kg/injection, schedule: Q04DX007 (ip), vehicle: sodium bicarbonate, higher = longer survival",74 % of control
same,T/C,"endpoint: median survival time, dose: 32.0 mg/kg/injection, schedule: Q04DX007 (ip), vehicle: saline, higher = longer survival",170 % of control
same,T/C,"endpoint: median survival time, dose: 32.0 mg/kg/injection, schedule: Q04DX007 (ip), vehicle: sodium bicarbonate, higher = longer survival",29 % of control
same,T/C,"endpoint: median survival time, dose: 64.0 mg/kg/injection, schedule: Q04DX007 (ip), vehicle: sodium bicarbonate, higher = longer survival",25 % of control
CC(=O)[C@@]1(O)CC[C@H]2[C@@H]3C[C@H](C)C4=CC(=O)C=C[C@]4(C)[C@@]3(F)[C@@H](O)C[C@@]21C,T/C,"endpoint: mean tumor weight, dose: 8.0 mg/kg/injection, schedule: Q01DX010 (sc), vehicle: steriod suspending solution, higher = larger tumour",37 % of control
same,T/C,"endpoint: mean tumor weight, dose: 16.0 mg/kg/injection, schedule: Q01DX010 (sc), vehicle: steriod suspending solution, higher = larger tumour",18 % of control
CCCCNc1ncnc2c1cnn2C,T/C,"endpoint: mean tumor weight, dose: 6.25 mg/kg/injection, schedule: Q01DX010 (ip), vehicle: carboxymethylcellulose (CMC), higher = larger tumour",63 % of control
same,T/C,"endpoint: mean tumor weight, dose: 12.5 mg/kg/injection, schedule: Q01DX010 (ip), vehicle: carboxymethylcellulose (CMC), higher = larger tumour",97 % of control
same,T/C,"endpoint: mean tumor weight, dose: 25.0 mg/kg/injection, schedule: Q01DX010 (ip), vehicle: carboxymethylcellulose (CMC), higher = larger tumour",57 % of control
O=P1(N(CCCl)CCCl)NCCCO1 (configuration not stated),T/C,"endpoint: mean tumor weight, dose: 6.3 mg/kg/injection, schedule: Q01DX010 (ip), vehicle: saline, higher = larger tumour",113 % of control and 107 % of control
same,T/C,"endpoint: mean tumor weight, dose: 13.0 mg/kg/injection, schedule: Q01DX011 (ip), vehicle: saline, higher = larger tumour",86 % of control
same,T/C,"endpoint: mean tumor weight, dose: 26.5 mg/kg/injection, schedule: Q01DX011 (ip), vehicle: saline, higher = larger tumour",121 % of control
same,T/C,"endpoint: mean tumor weight, dose: 40.0 mg/kg/injection, schedule: Q01DX011 (ip), vehicle: saline, higher = larger tumour",26 % of control
same,T/C,"endpoint: median survival time, dose: 3.12 mg/kg/injection, schedule: Q01DX010 (ip), vehicle: saline, higher = longer survival",80 % of control
same,T/C,"endpoint: median survival time, dose: 6.25 mg/kg/injection, schedule: Q01DX010 (ip), vehicle: saline, higher = longer survival",97 % of control
same,T/C,"endpoint: median survival time, dose: 6.3 mg/kg/injection, schedule: Q07DX005 (ip), vehicle: saline, higher = longer survival",99 % of control
same,T/C,"endpoint: median survival time, dose: 12.5 mg/kg/injection, schedule: Q01DX001 (ip), vehicle: saline, higher = longer survival",107 % of control
same,T/C,"endpoint: median survival time, dose: 12.5 mg/kg/injection, schedule: Q01DX010 (ip), vehicle: saline, higher = longer survival",96 % of control and 103 % of control (2×)
same,T/C,"endpoint: median survival time, dose: 12.5 mg/kg/injection, schedule: Q07DX005 (ip), vehicle: saline, higher = longer survival",106 % of control
same,T/C,"endpoint: median survival time, dose: 25.0 mg/kg/injection, schedule: Q01DX001 (ip), vehicle: saline, higher = longer survival",92 % of control (2×) and 101 % of control
same,T/C,"endpoint: median survival time, dose: 25.0 mg/kg/injection, schedule: Q01DX010 (ip), vehicle: saline, higher = longer survival",46 % of control and 98 % of control (2×)
same,T/C,"endpoint: median survival time, dose: 25.0 mg/kg/injection, schedule: Q07DX005 (ip), vehicle: saline, higher = longer survival",103 % of control
same,T/C,"endpoint: median survival time, dose: 50.0 mg/kg/injection, schedule: Q01DX001 (ip), vehicle: saline, higher = longer survival",97 % of control and 99 % of control (2×)
same,T/C,"endpoint: median survival time, dose: 50.0 mg/kg/injection, schedule: Q01DX010 (ip), vehicle: saline, higher = longer survival",29 % of control and 90 % of control (2×)
same,T/C,"endpoint: median survival time, dose: 50.0 mg/kg/injection, schedule: Q07DX005 (ip), vehicle: saline, higher = longer survival",110 % of control
same,T/C,"endpoint: median survival time, dose: 100.0 mg/kg/injection, schedule: Q01DX001 (ip), vehicle: saline, higher = longer survival",114 % of control and 100 % of control (2×)
same,T/C,"endpoint: median survival time, dose: 100.0 mg/kg/injection, schedule: Q01DX010 (ip), vehicle: saline, higher = longer survival",29 % of control
same,T/C,"endpoint: median survival time, dose: 100.0 mg/kg/injection, schedule: Q07DX005 (ip), vehicle: saline, higher = longer survival",95 % of control
same,T/C,"endpoint: median survival time, dose: 200.0 mg/kg/injection, schedule: Q01DX001 (ip), vehicle: saline, higher = longer survival",107 % of control
same,T/C,"endpoint: median survival time, dose: 200.0 mg/kg/injection, schedule: Q01DX010 (ip), vehicle: saline, higher = longer survival",25 % of control
same,T/C,"endpoint: median survival time, dose: 400.0 mg/kg/injection, schedule: Q01DX001 (ip), vehicle: saline, higher = longer survival",29 % of control
CO[C@H](C(=O)[C@@H](O)[C@@H](C)O)[C@@H]1Cc2cc3cc(OC4CC(OC5CC(O)C(O)C(C)O5)C(O)C(C)O4)c(C)c(O)c3c(O)c2C(=O)[C@H]1OC1CC(OC2CC(OC3CC(C)(O)C(O)C(C)O3)C(O)C(C)O2)C(O)C(C)O1 (some centres not stated),T/C,"endpoint: mean tumor weight, dose: 0.06 mg/kg/injection, schedule: Q01DX011 (ip), vehicle: saline, higher = larger tumour",89 % of control and 102 % of control
CCCNc1ncnc2[nH]ncc12,T/C,"endpoint: mean tumor weight, dose: 5.0 mg/kg/injection, schedule: Q01DX010 (ip), vehicle: water, higher = larger tumour",71 % of control
same,T/C,"endpoint: mean tumor weight, dose: 10.0 mg/kg/injection, schedule: Q01DX010 (ip), vehicle: water, higher = larger tumour",54 % of control
CCNc1nncs1,T/C,"endpoint: mean tumor weight, dose: 18.0 mg/kg/injection, schedule: Q01DX010 (ip), vehicle: carboxymethylcellulose (CMC), higher = larger tumour",93 % of control
same,T/C,"endpoint: mean tumor weight, dose: 37.0 mg/kg/injection, schedule: Q01DX010 (ip), vehicle: carboxymethylcellulose (CMC), higher = larger tumour",67 % of control
CC(=O)O[C@]1(C(C)=O)CC[C@H]2[C@@H]3C[C@H](C)C4=CC(=O)C=C[C@]4(C)[C@@]3(F)[C@@H](O)C[C@@]21C,T/C,"endpoint: mean tumor weight, dose: 5.0 mg/kg/injection, schedule: Q01DX010 (sc), vehicle: steriod suspending solution, higher = larger tumour",87 % of control
same,T/C,"endpoint: mean tumor weight, dose: 10.0 mg/kg/injection, schedule: Q01DX010 (sc), vehicle: steriod suspending solution, higher = larger tumour",106 % of control
same,T/C,"endpoint: mean tumor weight, dose: 20.0 mg/kg/injection, schedule: Q01DX010 (sc), vehicle: steriod suspending solution, higher = larger tumour",74 % of control
same,T/C,"endpoint: mean tumor weight, dose: 40.0 mg/kg/injection, schedule: Q01DX010 (sc), vehicle: steriod suspending solution, higher = larger tumour",47 % of control
Clc1ncnc2nc[nH]c12,T/C,"endpoint: mean tumor weight, dose: 31.25 mg/kg/injection, schedule: Q01DX010 (ip), vehicle: carboxymethylcellulose (CMC), higher = larger tumour",106 % of control
same,T/C,[1],95 % of control
same,T/C,[2],92 % of control
same,T/C,[3],79 % of control
N=C(N)c1ccc(Nc2ccc(C(=N)N)cc2)cc1,T/C,"endpoint: mean tumor weight, dose: 3.0 mg/kg/injection, schedule: Q01DX010 (ip), vehicle: saline, higher = larger tumour",105 % of control
same,T/C,[4],117 % of control
same,T/C,"endpoint: mean tumor weight, dose: 6.25 mg/kg/injection, schedule: Q01DX010 (ip), vehicle: methylcellulose (MC), higher = larger tumour",66 % of control
same,T/C,"endpoint: mean tumor weight, dose: 12.0 mg/kg/injection, schedule: Q01DX010 (ip), vehicle: saline, higher = larger tumour",77 % of control
same,T/C,"endpoint: mean tumor weight, dose: 12.5 mg/kg/injection, schedule: Q01DX010 (ip), vehicle: methylcellulose (MC), higher = larger tumour",77 % of control
O=C(O)c1ccc(-c2ccccc2)cc1,T/C,[1],101 % of control
same,T/C,[2],92 % of control
same,T/C,[3],95 % of control
CCn1cnc2c(=S)nc[nH]c21,T/C,"endpoint: mean tumor weight, dose: 7.75 mg/kg/injection, schedule: Q01DX010 (ip), vehicle: carboxymethylcellulose (CMC), higher = larger tumour",117 % of control
same,T/C,"endpoint: mean tumor weight, dose: 15.5 mg/kg/injection, schedule: Q01DX010 (ip), vehicle: carboxymethylcellulose (CMC), higher = larger tumour",95 % of control
same,T/C,"endpoint: mean tumor weight, dose: 31.0 mg/kg/injection, schedule: Q01DX010 (ip), vehicle: carboxymethylcellulose (CMC), higher = larger tumour",82 % of control
C=CC(CN1CC1)OC(C)=O (configuration not stated),T/C,"endpoint: mean tumor weight, dose: 4.0 mg/kg/injection, schedule: Q01DX010 (ip), vehicle: saline, higher = larger tumour",71 % of control
same,T/C,[4],64 % of control
same,T/C,"endpoint: mean tumor weight, dose: 8.0 mg/kg/injection, schedule: Q01DX010 (ip), vehicle: saline, higher = larger tumour",42 % of control
